# Assay results reported in US12552790B2, “Positive modulators of the muscarinic acetylcholine receptor M4” (Vanderbilt University, priority 2023, dated 2026).
# What was measured:
# [1] = system: amphetamine-induced hyperlocomotion in male Sprague-Dawley rats; assay: Amphetamine-induced hyperlocomotion in rats; type: in vivo; conditions: rat; for percent reversal of amphetamine-induced hyperlocomotion: amphetamine 0.75 mg/kg s.c.
# Description: Drugs: d-Amphetamine hemisulfate was obtained from Sigma (St. Louis, MO). Salt-correction was used to determine the correct amount of the d-amphetamine hemisulfate form in milligrams to add to sterile water in order to yield a 0.75 mg/mL solution, which would be dosed at 1 mL/kg body weight of each animal. […] The solutions were formulated so that animals were injected with a volume equal to 10 mL/kg body weight for all compounds. The appropriate amount according to the dosage was mixed in 10% Tween 80 (Sigma) in sterile water. The mixtures were then vortexed and stored in a 39° C. sonication bath for 1 hour, until in a solution or microsuspension (depending on dose).
# Animals: Male Sprague-Dawley rats weighing 239-300 grams and averaging 265 g (Harlan, Inc., Indianapolis, IN) were used. They were housed in the animal care facility certified by the American Association for the Accreditation of Laboratory Animal Care (AALAC) under a 12-hour light/dark cycle (lights on: 6 a.m.; lights off: 6 p.m.) and had free access to food and water. The animals used in this experiment were food-deprived the evening before experimentation for oral dosing of compound/vehicle. The experimental protocols performed during the light cycle were approved by the Institutional Animals Care and Use Committee of Vanderbilt University and conformed to the guidelines established by the National Research Council Guide for the Care and Use of Laboratory Animals.
# Amphetamine-induced Hyperlocomotion: Male Harlan Sprague Dawley rats were habituated in Smart Open Field locomotor activity test chambers (Hamilton-Kinder, San Diego, CA) with 16×16 photo beams to automatically record locomotor activity. […] They were monitored for an additional 30 minutes and then injected subcutaneously with vehicle or 0.75 mg/kg amphetamine. Animals were then monitored for an additional 60 minutes, for a total of 120 minutes. Data were expressed as changes in ambulation defined as total number of beam breaks per 5 minute interval. Terminal brain and plasma samples were collected at the end of the study for pharmacokinetic analysis.
# Data Analysis: Behavioral data were analyzed using a two-way ANOVA with main effects of treatment and time. Post hoc analysis was performed using a Dunnett's t-test with all treatment groups compared to the Vehicle/amphetamine group (VAMP) group using GraphPad Prism V.5.04 (GraphPad Software, San Diego, CA). Data were graphed using GraphPad Prism V.5.04 (GraphPad Software, San Diego, CA). A probability of p≤0.05 was taken as the level of statistical significance. In addition, the total number of beam breaks from the amphetamine administration (65 min) to the end of the study (120 min) was calculated and graphed. Percent Reversal was calculated as follows using Microsoft Excel: In each animal, total ambulation from t=65 to t=120 was summed. The mean of each sum was calculated in the VAMP group. Then, for each animal, Percent Reversal was calculated with the following formula: Percent Reversal=100−{[(total ambulation in each animal from t=65 to t=120)/(mean of each sum from t=65 to t=120 in VAMP group)]*100}. The mean Percent Reversal, as well as the standard error, was calculated for each dose group using GraphPad Prism V5.04.
# [2] = system: 68 primary molecular targets; assay: Eurofins LeadProfilingScreen (binding); conditions: 10 μM (binding), 68 targets
# Source text: The screen includes 68 primary molecular targets, including several CNS targets recommended by the EMEA to evaluate drug dependence potential.
# [3] = MDCK-MDR1 efflux ratio and permeability; type: in vitro ADME; conditions: dog, MDCK-MDR1
# Source text: (§1) Compounds may be tested in in vitro assays to investigate both metabolism and pharmacokinetics. These assays may be performed according to known methods as generally described in the following references: Conde-Ceide et al. ACS Med. Chem. Lett. 2015, 6, 716-720; Morris et al. J. Med. Chem. 2014, 57, 10192-10197; and Bubser et al. ACS Chem. Neurosci. 2014, 5, 920-942.
# [4] = system: MDCK-MDR1; assay: MDCK-MDR1 efflux ratio and permeability; type: in vitro ADME; conditions: efflux ratio
# Source text: as §1
# [5] = Rat fraction unbound in plasma; type: in vitro ADME; conditions: read-out: Rat Fu (plasma)
# Source text: as §1
# [6] = Dog fraction unbound in plasma; type: in vitro ADME; conditions: read-out: Dog Fu (plasma)
# Source text: as §1
# [7] = Dog intrinsic clearance; type: in vitro ADME
# Source text: as §1
# [8] = Human intrinsic clearance; type: in vitro ADME
# Source text: as §1
# [9] = target: P450 3A4 (Homo sapiens, UniProt P08684); assay: P450 3A4 inhibition; type: in vitro ADME
# P450 3A4, sequence (P08684 whole entry): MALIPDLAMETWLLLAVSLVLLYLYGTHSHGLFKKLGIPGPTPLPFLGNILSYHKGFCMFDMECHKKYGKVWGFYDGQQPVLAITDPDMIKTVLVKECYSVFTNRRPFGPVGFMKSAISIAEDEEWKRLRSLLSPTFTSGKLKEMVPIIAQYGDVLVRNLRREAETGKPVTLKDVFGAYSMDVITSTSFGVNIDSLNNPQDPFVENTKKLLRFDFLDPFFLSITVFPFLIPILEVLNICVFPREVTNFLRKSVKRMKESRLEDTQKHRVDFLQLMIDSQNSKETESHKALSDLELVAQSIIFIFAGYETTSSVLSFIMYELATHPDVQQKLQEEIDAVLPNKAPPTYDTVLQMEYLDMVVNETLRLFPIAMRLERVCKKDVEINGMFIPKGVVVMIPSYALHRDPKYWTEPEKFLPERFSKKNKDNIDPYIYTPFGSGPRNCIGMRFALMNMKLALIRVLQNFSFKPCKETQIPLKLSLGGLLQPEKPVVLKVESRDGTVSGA
# Source text: as §1
# [10] = target: P450 2D6 (Homo sapiens, UniProt P10635); assay: P450 2D6 inhibition; type: in vitro ADME
# P450 2D6, sequence (P10635 whole entry): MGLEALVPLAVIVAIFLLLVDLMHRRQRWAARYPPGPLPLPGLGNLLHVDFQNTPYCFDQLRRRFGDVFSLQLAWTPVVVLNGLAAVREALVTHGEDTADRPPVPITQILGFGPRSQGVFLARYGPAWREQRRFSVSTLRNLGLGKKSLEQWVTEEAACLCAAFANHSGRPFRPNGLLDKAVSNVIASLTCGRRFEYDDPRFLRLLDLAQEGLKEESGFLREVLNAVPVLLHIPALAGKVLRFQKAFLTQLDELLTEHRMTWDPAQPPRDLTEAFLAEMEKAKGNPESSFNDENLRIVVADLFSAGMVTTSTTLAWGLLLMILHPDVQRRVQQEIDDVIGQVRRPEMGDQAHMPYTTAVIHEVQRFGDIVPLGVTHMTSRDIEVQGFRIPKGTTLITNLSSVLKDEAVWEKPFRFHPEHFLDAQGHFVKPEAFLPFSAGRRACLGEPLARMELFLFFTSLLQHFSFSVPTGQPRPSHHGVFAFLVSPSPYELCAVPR
# Source text: as §1
# [11] = target: P450 2C9 (Homo sapiens, UniProt P11712); assay: P450 2C9 inhibition; type: in vitro ADME
# P450 2C9, sequence (P11712 whole entry): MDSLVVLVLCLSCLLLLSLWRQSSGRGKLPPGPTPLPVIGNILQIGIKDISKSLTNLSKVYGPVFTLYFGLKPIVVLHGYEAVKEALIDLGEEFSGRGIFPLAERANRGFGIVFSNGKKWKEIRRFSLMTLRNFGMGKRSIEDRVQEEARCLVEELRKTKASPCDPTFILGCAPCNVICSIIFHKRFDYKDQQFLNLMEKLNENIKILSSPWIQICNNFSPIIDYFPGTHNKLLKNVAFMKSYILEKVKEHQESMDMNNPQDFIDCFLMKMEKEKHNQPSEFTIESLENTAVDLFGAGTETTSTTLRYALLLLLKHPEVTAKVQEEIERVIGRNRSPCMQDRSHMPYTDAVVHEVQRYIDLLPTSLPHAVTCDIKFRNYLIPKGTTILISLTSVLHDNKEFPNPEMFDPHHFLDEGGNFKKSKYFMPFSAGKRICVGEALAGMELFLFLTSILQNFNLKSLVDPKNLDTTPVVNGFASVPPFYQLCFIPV
# Source text: as §1
# [12] = target: T1, P450 1A2 (Homo sapiens, UniProt P05177); assay: P450 1A2 inhibition; type: in vitro ADME
# T1 sequence (P05177 1-516): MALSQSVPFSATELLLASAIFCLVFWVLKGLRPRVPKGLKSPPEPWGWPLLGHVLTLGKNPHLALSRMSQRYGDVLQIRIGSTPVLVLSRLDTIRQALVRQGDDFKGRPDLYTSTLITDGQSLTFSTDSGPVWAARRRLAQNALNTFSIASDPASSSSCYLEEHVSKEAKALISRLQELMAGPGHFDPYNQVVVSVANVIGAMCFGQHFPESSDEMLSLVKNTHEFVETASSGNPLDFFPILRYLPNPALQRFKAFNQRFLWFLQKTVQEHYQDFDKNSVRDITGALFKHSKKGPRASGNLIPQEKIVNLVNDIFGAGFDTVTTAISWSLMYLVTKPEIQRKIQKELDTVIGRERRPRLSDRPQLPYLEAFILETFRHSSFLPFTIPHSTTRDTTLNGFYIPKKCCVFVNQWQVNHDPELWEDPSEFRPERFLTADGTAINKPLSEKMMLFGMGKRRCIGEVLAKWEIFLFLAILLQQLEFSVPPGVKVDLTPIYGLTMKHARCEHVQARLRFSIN
# Source text: as §1
# [13] = In vivo pharmacokinetic study in rat
# [14] = In vivo pharmacokinetic study in dog
smiles,measurement,setting,value
"[2H]C1([2H])Oc2ccc(OC3CCN(c4nc5c(cc4C)C(=O)NC5)CC3)cc2OC1([2H])[2H] [Compound 3, 2-(4-((2,3-dihydrobenzo[b][1,4]dioxin-6-yl-2,2,3,3-d4)oxy)piperidin-1-yl)-3-methyl-6,7-dihydro-5H-pyrrolo[3,4-b]pyridin-5-one]",percent reversal of amphetamine-induced hyperlocomotion,[1]; 1 mg/kg oral gavage,27.5%
same,percent reversal of amphetamine-induced hyperlocomotion,[1]; 1.8 mg/kg oral gavage,40.1%
same,percent reversal of amphetamine-induced hyperlocomotion,[1]; 3 mg/kg oral gavage,59.1%
same,percent reversal of amphetamine-induced hyperlocomotion,[1]; 5.6 mg/kg oral gavage,60.9%
same,reversal of amphetamine-induced hyperlocomotion (in words),[1]; systemic administration,significant and sustained reversal
same,inhibition of each target in the LeadProfilingScreen,[2],< 50%
same,Papp A→B,[3],45.5 ×10⁻⁶ cm/s
same,MDCK-MDR1 ER,[4],1.3
same,fraction unbound,[5],0.026
same,fraction unbound,[6],0.042
same,CLint scaled,[7],19 mL/min/kg
same,CLint scaled,[8],15 mL/min/kg
same,IC50,[9],> 100 µM
same,IC50,[10],> 100 µM
same,IC50,[11],> 100 µM
same,IC50,[12],> 100 µM
same,Rat oral F,[13]; 3 mg/kg oral,>100%
same,Kp,"[13]; brain, read-out: Rat brain: plasma Kp",1.2
same,Kp uu,"[13]; brain, unbound, read-out: Rat brain: plasma Kp, uu",0.7
same,clearance,"[13]; plasma, read-out: Rat CLp",16.9 mL/min/kg
same,half-life,"[13]; plasma, read-out: Rat Elim. t1/2 (converted)",84 min
same,Vd,"[13]; plasma, read-out: Rat Vss",1.6 L/kg
same,Dog oral F,[14]; 3 mg/kg oral,89%
same,clearance,"[14]; plasma, read-out: Dog CLp",1.8 mL/min/kg
same,half-life,"[14]; plasma, read-out: Dog Elim. t1/2 (converted)",456 min
same,Vd,"[14]; plasma, read-out: Dog Vss",1 L/kg
